Experiments:
[1] = system: chloroquine-resistant P. falciparum strains; assay: microbe, parasite or virus in culture; conditions: Plasmodium falciparum
Method: (§1) The compounds of the invention were tested in vitro on chloroquine-sensitive and chloroquine-resistant strains of P. falciparum. […] Parasites' growth was evaluated with a colorimetric assay for pLDH at 72 hours.

[2] = system: chloroquine-sensitive P. falciparum strains; assay: microbe, parasite or virus in culture; conditions: Plasmodium falciparum
Method: as §1

## CCN(CC)CCCC(C)Nc1ccnc2cc(Cl)ccc12 (centres unmarked) [chloroquine, 7-chloro-4-(4-diethylamino-1-methylbutylamino)quinoline]
[1]
  IC50: 150 to 300 nM
[2]
  IC50: 27.8 ± 9 nM

Reference: patent EP1675855B1, “4-AMINO-QUINOLINE OUINOLIZIDINYL-AND QUINOLIZIDINYLALKYL-DERIVATIVES WITH ANTIMALARIAL ACTIVITY” (Need Pharmaceuticals S.r.l., priority 2003, dated 2005)
